System: SARS-CoV-2
Conditions: for % Inh. (% Inhibition of SARS-CoV-2): 10 µM

Q: Which “% Inh. (% Inhibition of SARS-CoV-2)” value does the source give for `CC[C@H](C)[C@@H]([C@@H](CC(=O)N1CCC[C@H]1[C@H](OC)[C@@H](C)C(=O)N[C@@H](Cc1ccccc1)c1nccs1)OC)N(C)C(=O)[C@@H](NC(=O)[C@H](C(C)C)N(C)C)C(C)C` [Dolastin-10] here?
A: 64.3%

Q: Which “% Inh. (% Inhibition of SARS-CoV-2)” value does the source give for `Cc1ccc(-c2csc(NC(=O)c3ccccc3)n2)c(C)c1` [INH1] here?
A: 89.8%

Q: For `CC(C)(C)c1ccc(NC(=O)N2CCN(c3ncccc3Cl)CC2)cc1` [BCTC], which “% Inh. (% Inhibition of SARS-CoV-2)” value is on record?
A: 86.4%

Q: How did the “% Inh. (% Inhibition of SARS-CoV-2)” value turn out when `Cl.c1ccc2c(-c3cnn4cc(-c5ccc(N6CCNCC6)cc5)cnc34)ccnc2c1` [LDN193189 (Hydrochloride)] was run?
A: 74.3%

Q: With `CC(C)(Cc1ccc2ccccc2c1)NC[C@@H](O)COc1cccc(Cl)c1C#N` [NPS-2143 (SB262470)] as the compound, how does the “% Inh. (% Inhibition of SARS-CoV-2)” value read?
A: 67.3%

Q: `O=C1NC(=O)/C(=C/c2cccc(C(F)(F)F)c2)S1` [SMI-4a] was tested. Which “% Inh. (% Inhibition of SARS-CoV-2)” value did it give?
A: 89.9%

Q: With `N#Cc1cnc2cnc(NCc3cccnc3)cc2c1Nc1ccc(F)c(Cl)c1` [TC-S-7006] as the compound, how does the “% Inh. (% Inhibition of SARS-CoV-2)” value read?
A: 100.7%

Q: How did the “% Inh. (% Inhibition of SARS-CoV-2)” value turn out when `COc1ccc(NC(=O)c2ccc(-c3ccc(-c4noc(C)n4)cc3C)cc2)cc1OCCN(C)C` [SB-216641] was run?
A: 57.6%

Q: How did the “% Inh. (% Inhibition of SARS-CoV-2)” value turn out when `Cc1ccc(C(=O)N(CCCN)[C@@H](c2oc3cc(Cl)ccc3c(=O)c2Cc2ccccc2)C(C)C)cc1` [SB-743921] was run?
A: 78.9%

Q: With Nizofenone fumarate as the compound, how does the “% Inh. (% Inhibition of SARS-CoV-2)” value read?
A: 52.4%

Q: With `O=C1Nc2ccccc2C2(CCN(CCc3ccc(C(F)(F)F)cc3)CC2)O1` [RS-102895] as the compound, how does the “% Inh. (% Inhibition of SARS-CoV-2)” value read?
A: 82.1%

Q: For `CNCc1ccc(C)c(NC(=O)c2ccc(Nc3nc(-c4ccccc4)c4ccccc4n3)cc2)c1` [BMS-833923 (XL139)], which “% Inh. (% Inhibition of SARS-CoV-2)” value is on record?
A: 68.8%

Q: For `COc1cccc(-c2cc(F)ccc2[C@H]2Cc3nc(N)nc(C)c3C(=O)N2)n1` [NVP-HSP990], which “% Inh. (% Inhibition of SARS-CoV-2)” value is on record?
A: 100.4%

Q: For Lasofoxifene (Tartrate), which “% Inh. (% Inhibition of SARS-CoV-2)” value is on record?
A: 54.3%

Q: How did the “% Inh. (% Inhibition of SARS-CoV-2)” value turn out when niguldipine-(S)-(+) was run?
A: 93.0%

Q: With `COc1cc2ncnc(Nc3ccc(Cl)cc3F)c2cc1OC` [ZM-306416] as the compound, how does the “% Inh. (% Inhibition of SARS-CoV-2)” value read?
A: 77.9%

Q: With `CNC[C@H](O)[C@@H](O)[C@H](O)[C@H](O)CO.CNC[C@H](O)[C@@H](O)[C@H](O)[C@H](O)CO.C[C@@H](O[C@H]1OCCN(Cc2nn(P(=O)(O)O)c(=O)[nH]2)[C@H]1c1ccc(F)cc1)c1cc(C(F)(F)F)cc(C(F)(F)F)c1` [Fosaprepitant dimeglumine salt] as the compound, how does the “% Inh. (% Inhibition of SARS-CoV-2)” value read?
A: 78.3%

Q: For `CC1CCN(C(c2ccc(F)cc2)c2ccc(C(C)C(=O)O)cc2-c2ccc(C(F)(F)F)cc2)CC1` (stereo not shown) [TC-E-5006], which “% Inh. (% Inhibition of SARS-CoV-2)” value is on record?
A: 94.1%

Q: `COc1cc(Br)c(S(=O)(=O)Nc2ccc(Cl)c(O[C@@H]3CCN(C)C3)c2)cc1OC` [SB-657510] was tested. Which “% Inh. (% Inhibition of SARS-CoV-2)” value did it give?
A: 101.1%

Q: Which “% Inh. (% Inhibition of SARS-CoV-2)” value does the source give for `Cc1ccc(Nc2ncc3c(n2)N(C)C(=O)N(c2cc(NC(=O)c4cccc(C(F)(F)F)c4)ccc2C)C3)cn1` [GNF-7] here?
A: 107.6%

Q: For `Nc1cc(C(F)(F)F)c(-c2cc(N3CCOCC3)nc(N3CCOCC3)n2)cn1` [BKM120 (NVP-BKM120)], which “% Inh. (% Inhibition of SARS-CoV-2)” value is on record?
A: 97.6%

Q: How did the “% Inh. (% Inhibition of SARS-CoV-2)” value turn out when `Cc1ncc(-c2ccnc(Nc3ccc(S(C)(=O)=O)cc3)n2)n1C(C)C` [AZD5438] was run?
A: 67.2%

Q: `CCCCCCc1ccc(O)cc1O.Nc1c2ccccc2nc2ccccc12` [ACRISORCIN] was tested. Which “% Inh. (% Inhibition of SARS-CoV-2)” value did it give?
A: 61.7%

Q: How did the “% Inh (% inhibition of virus infection)” value (comparative experiments, Examples 1 and 2) turn out when MONENSIN SODIUM was run?
A: 103.2%

Q: For `CC(C)CNc1ccnc(NCc2csc(-c3ccccc3)n2)n1` [KHS-101], which “% Inh. (% Inhibition of SARS-CoV-2)” value is on record?
A: 91.2%

Q: Which “% Inh. (% Inhibition of SARS-CoV-2)” value does the source give for NI-57 here?
A: 78.3%

Q: How did the IC50 turn out when `CNS(=O)(=O)Nc1nccc(Cc2c(C)c3ccc(Oc4ncccn4)cc3oc2=O)c1F` [RO5126766 (CH5126766)] was run?
A: 5.36 µM

Q: What about the pIC50 of the same compound?
A: 5.27

Q: And the “% Inh. (% Inhibition of SARS-CoV-2)” value?
A: 102.6%

Q: For `COc1ccc(S(=O)(=O)N(CCO)c2ccccc2CN(C)C/C=C/c2ccc(Cl)cc2)cc1` [KN-93], which “% Inh. (% Inhibition of SARS-CoV-2)” value is on record?
A: 88.4%

Q: Which “% Inh. (% Inhibition of SARS-CoV-2)” value does the source give for `CCN(CC)CCCCNc1ncc2cc(-c3c(Cl)cccc3Cl)c(NC(=O)NC(C)(C)C)nc2n1` [PD-161570] here?
A: 108.1%
